# Test results as given in patent publication US20230033195A1, “METHODS AND COMPOSITIONS FOR IMPROVING COGNITIVE FUNCTION” (THE JOHNS HOPKINS UNIVERSITY, priority 2011, published 2023).
# System: aMCI subjects
# Assay: explicit 3-alternative forced choice task
# Type: in vivo, human
# Settings: 125 mg twice a day for two weeks, vs placebo, p = 0.039
# Source text: Each bar represents the proportion of the subjects responses (old, similar, or new) when presented with a lure image.
# There are various tests known in the art for assessing cognitive function in humans, for example and without limitation, the clinical global impression of change scale (CIBIC-plus scale); the Mini Mental State Exam (MMSE); the Neuropsychiatric Inventory (NPI); the Clinical Dementia Rating Scale (CDR); the Cambridge Neuropsychological Test Automated Battery (CANTAB); the Sandoz Clinical Assessment-Geriatric (SCAG), the Buschke Selective Reminding Test (Buschke and Fuld, 1974); the Verbal Paired Associates subtest; the Logical Memory subtest; the Visual Reproduction subtest of the Wechsler Memory Scale-Revised (WMS-R) (Wechsler, 1997); or the Benton Visual Retention Test. See Folstein et al., J Psychiatric Res 12: 189-98, (1975); Robbins et al., Dementia 5: 266-81, (1994); Rey, L'examen clinique en psychologie, (1964); Kluger et al., J Geriatr Psychiatry Neurol 12:168-79, (1999); Marquis et al., 2002 and Masur et al., 1994. Another example of a cognitive test in humans is the explicit 3-alternative forced choice task. […]
# The activity of the subject's medial temporal lobe is measured by functional MRI during the subject's participation in an explicit 3-alternative forced choice task, where participants view novel, repeated and similar ("lure") stimuli. […]
smiles,measurement,value
"CC[C@@H](C(N)=O)N1CCCC1=O [levetiracetam, (2S)-2-(2-oxopyrrolidin-1-yl) butanamide]",performance in the explicit 3-alternative forced choice task (similar vs old responses to lures),improves significantly
